PubChem BioAssay (NCI)
Values joined by “and” are separate entries in the source; they are usually repeats but may differ in a detail not shown here. Equal values may be shown once.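 Cultured in 96-well plates, cells were exposed to test compound for 48 hours across five concentrations. The concentration for 50% growth inhibition is given as GI50. The concentration for full growth arrest is given as TGI.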 Where a SMILES comes first, the peptide text is derived from it. Bridges are numbered along the chain shown (N, C = ends). The star is where a group is joined. Cbz = O=C(OCc1ccccc1)*

Assays:
Assay in all cases: NCI tumour cell line growth inhibition, 48 h
NCI-H226 lung = system: NCI-H226 lung
UACC-257 melanoma = system: UACC-257 melanoma
SK-MEL-28 melanoma = system: SK-MEL-28 melanoma
T-47D breast = system: T-47D breast
HOP-92 NSCLC = system: HOP-92 NSCLC
HCT-15 colon = system: HCT-15 colon
SR leukemia = system: SR leukemia
LOX IMVI melanoma = system: LOX IMVI melanoma
HOP-62 NSCLC = system: HOP-62 NSCLC
MALME-3M melanoma = system: MALME-3M melanoma

Row | SMILES | TGI (NCI-H226 lung) | TGI (UACC-257 melanoma) | TGI (SK-MEL-28 melanoma) [µM] | TGI (T-47D breast) | TGI (HOP-92 NSCLC) | TGI (HCT-15 colon) | TGI (SR leukemia) [µM] | TGI (LOX IMVI melanoma) | TGI (HOP-62 NSCLC) | TGI (MALME-3M melanoma) | GI50 (UACC-257 melanoma) | GI50 (T-47D breast) | GI50 (HOP-92 NSCLC) | GI50 (HCT-15 colon) | GI50 (LOX IMVI melanoma) | GI50 (HOP-62 NSCLC) | GI50 (MALME-3M melanoma)
1 | Cc1ccc(SC[C@@]2(C(F)F)NC(=O)NC2=O)cc1 | > 100 µM | > 100 µM | > 100 | > 100 µM | > 100 µM | > 100 µM | > 100 | > 100 µM | > 100 µM | > 100 µM |  |  |  |  |  |  | 
2 | CC(=O)CC(C)(C)NC(=O)[C@@]1(O)CC[C@H]2[C@@H]3CCC4=CC(=O)CC[C@@H]4[C@H]3CC[C@@]21C | > 100 µM | > 100 µM | > 100 | > 100 µM | > 100 µM | > 100 µM | > 100 | > 100 µM | > 100 µM | > 100 µM |  |  |  |  |  |  | 
3 | CC(C)C(C/C=C1/CC(CO)(COC(=O)C2CCCCC2)OC1=O)C(C)C (stereo not drawn) | 48.6 µM | 78.7 µM | 35.1 | 45.9 µM | 29.8 µM | 39.6 µM | > 100 | 29.4 µM | 26.9 µM | 42.3 µM |  |  |  |  |  |  | 
4 | COc1ccc2c(-c3ccc(OCCN(C)C)cc3)c(Oc3ccc(Cl)cc3)c(=O)oc2c1 | > 55.7 µM | 3.75 µM | 3.57 | > 100 µM | 32.5 µM | 15.5 µM | 5.06 | 4.3 µM | > 100 µM | 3.48 µM |  |  |  |  |  |  | 
5 | CC1C2CC(C/C2=N/O)C1(C)C (stereo not drawn) | > 100 µM | > 100 µM | > 100 | > 100 µM | > 100 µM |  | > 100 |  | > 100 µM | > 100 µM |  |  |  |  |  |  | 
6 | CC(C)(C)c1cc(C(=O)/C=C/c2ccn[nH]2)cc(C(C)(C)C)c1O | 11.6 µM | 11.2 µM | 11.7 | 3.32 µM | 5.53 µM | 4.71 µM | 3.61 | 3.48 µM | 9.52 µM | 20.2 µM |  |  |  |  |  |  | 
7 | CCCCCn1c(=O)c2c(=O)[nH][nH]c2c2ccccc21 | > 100 µM | > 100 µM | > 100 | > 100 µM | > 100 µM | > 100 µM | > 100 | > 100 µM | > 100 µM | > 100 µM |  |  |  |  |  |  | 
8 | COC(=O)C1CCCCNC(=O)CCC(NC(=O)OCc2ccccc2)C(=O)N1 (stereo not drawn) (Cbz-Glu-Lys-OMe; lactam 1-2; configuration not given here) | > 100 µM | > 100 µM | > 100 | > 100 µM | 95.1 µM | > 100 µM | > 100 | > 100 µM | > 100 µM | > 100 µM |  |  |  |  |  |  | 
9 | S=C(N/N=C\c1ccccn1)N(Cc1ccccn1)Cc1ccccn1 | 1.78 µM | 39.5 µM | > 49.7 | > 40.4 µM | 11.4 µM | > 43.2 µM | > 39 | 12.6 µM | 41.7 µM | 16.9 µM |  |  |  |  |  |  | 
10 | CC1(C)CCCCCCCCCC(C)(CCCCCCCCCCCCO)C1=O (stereo not drawn) | 22.5 µM | 29.9 µM | 32.6 | 34 µM | 31.7 µM | 55 µM | > 100 | 32.3 µM | 47.5 µM | 30.6 µM |  |  |  |  |  |  | 
11 | CCOC(=O)c1c(NCc2ccccc2)n(-c2ccccc2)c(=S)n(-c2ccccc2)c1=O | > 100 µM | > 100 µM | > 100 | > 100 µM | > 100 µM | > 100 µM | > 100 | > 100 µM |  | > 100 µM |  |  |  |  |  |  | 
12 | N=C(N)SCCCN | 66 µM | 26 µM | > 86 | > 100 µM | > 40.6 µM | > 100 µM | 23.5 | 13.6 µM | 35.7 µM | 29.1 µM |  |  |  |  |  |  | 
13 | c1csc(-c2csc(-c3ccsc3)c2)c1 | > 100 µM | > 100 µM | > 100 | > 100 µM | > 100 µM | > 100 µM | > 100 | > 100 µM | > 100 µM | > 100 µM |  |  |  |  |  |  | 
14 | O=C(/C=C(\O)c1ccccc1)/C(=C/C(=O)c1ccccc1)NN=C(c1ccccc1)c1ccccc1 | 72.7 µM | 73.1 µM | > 100 | > 100 µM | > 100 µM | > 100 µM | > 100 | > 100 µM | > 100 µM | > 100 µM |  |  |  |  |  |  | 
15 | COc1nc(OC)nc(-c2cccc(F)c2)n1 | 31.1 µM | 30.7 µM | 39.6 | 33.8 µM | 38.8 µM | 29.3 µM | 17.5 | 43.7 µM | 45.7 µM | 31.2 µM |  |  |  |  |  |  | 
16 | COc1cc(C(c2cccc3ccccc23)N2C(=O)CCC2C(=O)NCc2ccccc2)cc(OC)c1OC (stereo not drawn) | > 100 µM | > 100 µM | > 100 | > 100 µM | > 100 µM | > 100 µM | > 100 | > 100 µM | > 100 µM | > 100 µM |  |  |  |  |  |  | 

Row | SMILES | TGI (NCI-H226 lung) | TGI (UACC-257 melanoma) | TGI (SK-MEL-28 melanoma) [µM] | TGI (T-47D breast) | TGI (HOP-92 NSCLC) | TGI (HCT-15 colon) | TGI (SR leukemia) [µM] | TGI (LOX IMVI melanoma) | TGI (HOP-62 NSCLC) | TGI (MALME-3M melanoma) | GI50 (UACC-257 melanoma) | GI50 (T-47D breast) | GI50 (HOP-92 NSCLC) | GI50 (HCT-15 colon) | GI50 (LOX IMVI melanoma) | GI50 (HOP-62 NSCLC) | GI50 (MALME-3M melanoma)
17 | Cc1cc(S(=O)(=O)Nc2nc3ccccc3n2-c2ccccc2)c(S)cc1Cl | > 100 µM | > 100 µM | > 100 | > 100 µM | > 100 µM | > 100 µM | > 100 | > 100 µM |  | > 100 µM |  |  |  |  |  |  | 
18 | O=S(=O)(O)c1cc(O)c2c(O)c(N=Nc3cccc4ccccc34)c(S(=O)(=O)O)cc2c1 | > 100 µM | > 100 µM | > 100 | > 100 µM | > 100 µM | > 100 µM | > 100 | > 100 µM | > 100 µM | > 100 µM |  |  |  |  |  |  | 
19 | Cc1ccc(OCC2OC(n3cnc4c(Cl)ncnc43)CC2Oc2ccc(C)cc2)cc1 (stereo not drawn) | 31.7 µM and 44.1 µM | 18.5 µM and 37.1 µM | 14.9 | 49.5 µM and > 100 µM | 24.2 µM and 5.57 µM | 4.28 µM and 41.6 µM | > 22.7 | 10.8 µM and > 45.9 µM | 13 µM and 38 µM | 55.8 µM and 8.66 µM | 6.24 µM and 16 µM | 8.39 µM and 29.2 µM | 5.22 µM and 2.22 µM | 1.94 µM and 11.7 µM | 2.41 µM and 15 µM | 4.29 µM and 17.5 µM | 20.2 µM and 2.68 µM
20 | O/N=C1\CCc2nonc2\C1=N/Nc1ccccc1 | > 100 µM | > 100 µM | > 100 | > 100 µM | > 100 µM | > 100 µM | > 100 | > 100 µM | > 100 µM | > 100 µM |  |  |  |  |  |  | 
21 | O=C(O)c1cc(Cl)cc2c1NC1(N2)C(=O)Nc2ccccc21 (stereo not drawn) | > 100 µM | > 100 µM | > 100 | > 100 µM | > 100 µM | > 100 µM | > 100 | > 100 µM | > 100 µM | > 100 µM |  |  |  |  |  |  | 
22 | CCn1c2ccc(O)c(C(=O)OC)c2c2cc3ccccc3c(O)c21 | 83.8 µM | > 100 µM | 87.4 | 34.1 µM | 21.3 µM | 56 µM | 57.6 |  | 45 µM | 20.7 µM |  |  |  |  |  |  | 
23 | COC(=O)/C(=C\c1ccco1)P(=O)(OC)OC | > 100 µM | > 100 µM | > 100 | > 100 µM | 91.9 µM | > 100 µM | > 100 | 71 µM | 52.7 µM | 59 µM |  |  |  |  |  |  | 
24 | Clc1nc(Nc2nc3ccccc3[nH]2)nc(Cl)c1Cc1ccccc1 | > 100 µM | > 100 µM | > 100 | > 100 µM | 70.9 µM | > 100 µM | > 100 |  |  | > 100 µM |  |  |  |  |  |  | 
25 | COc1ccc(/C(=N/Nc2nc3ccccc3[nH]2)C(=O)O)cc1 | > 100 µM | > 100 µM | > 100 | > 100 µM | > 100 µM | > 100 µM | > 100 | > 100 µM | > 100 µM | > 100 µM |  |  |  |  |  |  | 
26 | Cc1nn(C)c2nc3ccc(Cl)cc3c(-c3ccccc3)c12 | > 100 µM | > 100 µM | > 100 | > 100 µM | > 100 µM | > 100 µM | > 100 |  | > 100 µM | > 100 µM |  |  |  |  |  |  | 
27 | CC(NNC(=O)c1ccncc1)c1ccc(Cl)c(Cl)c1 (stereo not drawn) | > 100 µM | > 100 µM | > 100 | > 100 µM | > 100 µM | > 100 µM | > 100 | > 100 µM | > 100 µM | > 100 µM |  |  |  |  |  |  | 
28 | COC1=CC(=O)c2c(O)c3c(c(O)c2C1=O)C[C@](C)(O)C[C@@H]3O | 45.6 µM | 5.28 µM | 18.4 | 22.3 µM | 22.6 µM | 15.8 µM | 12.1 | 10.1 µM | 19.7 µM | 2.59 µM |  |  |  |  |  |  | 
29 | COP(=O)(OC)C(NC=O)P(=O)(OC)OC | > 100 µM |  | > 100 | > 100 µM | > 100 µM | > 100 µM | > 100 | > 100 µM | > 100 µM | > 100 µM |  |  |  |  |  |  | 
30 | Cc1c(C#N)c2nnn(-c3ccccc3)c(=O)n2c1-c1ccccc1 | > 100 µM | > 100 µM | > 100 | 87.4 µM | > 100 µM | > 100 µM | 19.3 | > 100 µM | > 100 µM | > 100 µM |  |  |  |  |  |  | 
31 | CNC(=S)N/N=C(\C)c1nc2ncccc2[nH]1 | > 90.9 µM | > 100 µM | > 100 | > 100 µM | > 100 µM | > 100 µM | > 100 | > 100 µM | > 100 µM | > 100 µM |  |  |  |  |  |  | 
32 | Cc1nn(C(=O)c2ccncc2)c2c1C(c1cccc([N+](=O)[O-])c1)SC(N)=N2 (stereo not drawn) | > 10 µM | > 10 µM | > 10 | > 10 µM | > 10 µM | > 10 µM | > 10 | > 10 µM | > 10 µM | > 10 µM |  |  |  |  |  |  | 
